Starred links: 1 amine or outer side, 2 acyl side, 3 side chain; linkers in the order of their positions; H or OH if unused. Residues, ends and D or L forms follow the SMILES beside them. Groups on a side chain read outwards from the residue. *: point of attachment. Glutaryl = O=C(CCCC(=O)[*:2])[*:1]; NHNH2 = NN*
Legend:
Assay type in all cases: cell-based
[1] = tested on: Hek293 cells expressing EGFP; test: Cas9-RNP delivery against EGFP (gene editing, plate reader), Hek293
Experimental: (§1) To generate an EGFP expressing HeLa cell line, HeLa cells were transfected with EGFP pDNA (pEGFP-C1, Clontech) and stable transfectants were selected with 400 μg/mL of G-418 (Millipore). Green clones were selected by epifluorescence microscopy and tested for EGFP expression stability through several passages. […] All other EGFP-expressing cell lines were obtained in a similar way from parent non-EGFP-expressing cell lines.
Cells expressing EGFP were seeded in a 96 well plate the day before the experiment at a concentration of 50,000 cell/mL (100 μL/w) in DMEM+10% FBS+1% Gln-Abt. For robotic library screening, the delivery of Cas9-RNP against EGFP (RNP designed to knock-out the gene encoding for the enhanced green fluorescent protein (EGFP)) was performed. For RNP assembly, 9.2 μL of crRNA and 9.2 μL of tracrRNA were mixed in 211.6 μL of Nuclease-Free Duplex Buffer (IDT), incubated for 5 min at 95° C. and slowly cooled at rt (see I. Lostalé-Seijo, et al. Peptide/Cas9 nanostructures for ribonucleoprotein cell membrane transport and gene edition, Chem. Sci., 2017). Cas9 protein was dissolved in DMEM at a final concentration of 4 μM and equal volumes of the RNA complex and Cas9 were mixed and incubated for 5 min at rt. 75 μL of the corresponding amphiphile concentrations were added to 5 μL of RNP at 2 μM. The mixture was shaken for 30 min at room temperature before the addition to the cells. The cell medium was aspirated, and cells were washed twice with PBS. Cells were covered with 30 μL of DMEM and 20 μL of the RNP/amphiphile complexes were added to the cells (final peptide concentrations=2.5, 5 and 10 μM; final Cas9-RNP concentration=50 nM) and incubated for 4 h. After the incubation, the medium was replaced by 100 μL of fresh DMEM supplemented with 10% FBS. The total EGFP fluorescence was quantified after 72 h in a plate reader (FIG. 2, Table 1 (right) and Table 6). All experiments were done in triplicate. […]
(§2) Tables 26-31 show the mean (triplicates) percentage of gene editing, accounted by GFP fluorescence intensity decrease (% of reduction), measured after the transfection of Cas9-RNP by different amphiphiles at different concentrations in a variety of cell lines. Background values, accounted by untreated control cells, were subtracted for processing.

[2] = tested on: Hela cells expressing EGFP; test: Cas9-RNP delivery against EGFP (gene editing, plate reader), HeLa
Experimental: as §1
Cells expressing EGFP were seeded in a 96 well plate the day before the experiment at a concentration of 50,000 cell/mL (100 μL/w) in DMEM+10% FBS+1% Gln-Abt. For robotic library screening, the delivery of Cas9-RNP against EGFP (RNP designed to knock-out the gene encoding for the enhanced green fluorescent protein (EGFP)) was performed. For RNP assembly, 9.2 μL of crRNA and 9.2 μL of tracrRNA were mixed in 211.6 μL of Nuclease-Free Duplex Buffer (IDT), incubated for 5 min at 95° C. and slowly cooled at rt (see I. Lostalé-Seijo, et al. Peptide/Cas9 nanostructures for ribonucleoprotein cell membrane transport and gene edition, Chem. Sci., 2017). Cas9 protein was dissolved in DMEM at a final concentration of 4 μM and equal volumes of the RNA complex and Cas9 were mixed and incubated for 5 min at rt. 75 μL of the corresponding amphiphile concentrations were added to 5 μL of RNP at 2 μM. The mixture was shaken for 30 min at room temperature before the addition to the cells. The cell medium was aspirated, and cells were washed twice with PBS. Cells were covered with 30 μL of DMEM and 20 μL of the RNP/amphiphile complexes were added to the cells (final peptide concentrations=2.5, 5 and 10 μM; final Cas9-RNP concentration=50 nM) and incubated for 4 h. After the incubation, the medium was replaced by 100 μL of fresh DMEM supplemented with 10% FBS. The total EGFP fluorescence was quantified after 72 h in a plate reader (FIG. 2, Table 1 (right) and Table 6). All experiments were done in triplicate.
(§3) Tables 1-7: RLuc (pDNA) or EGFP (mRNA) expression levels were normalized to Lipofectamine reagents (value=1) and expressed as fold-times signal increase. In the case of siRNA, the siRNA treated cells fluorescence was compared with siMOCK control fluorescence, while Cas9-RNP mediated knockout was measured against the fluorescence of untreated cells. In both siRNA and Cas9-RNP, values are expressed as % fluorescence reduction. Amphiphile concentration was 5 μM in all cases. All experiments were performed in triplicate.
as §2

[3] = tested on: HCT116 cells; test: EGFP mRNA delivery, robotic library screening, HCT116
Experimental: Cells were seeded in a 96 well plate the day before the experiment at a concentration of 50,000 cell/mL (100 μL/w) in DMEM+10% FBS+1% Gln-Abt. For robotic library screening, the delivery of EGFP-mRNA (from TriLink, fully substituted with 5-methoxyuridine, capped and polyadenylated; TriLink, CleanCap® EGFP mRNA (5moU), ref. L-7201) in six different cell lines was performed. Amphiphilic molecule stock solutions were prepared in DMSO as described above and diluted in DMEM to afford a range of concentrations. The solutions of EGFP-mRNA/amphiphilic molecule complexes were freshly prepared prior to the transfection experiments. 35 μL of the corresponding amphiphile were added to 10 μL of a solution of EGFP-mRNA at 10 ng/μL in DMEM. The mixture was shaken for 30 min at room temperature before the addition to the cells. The cell medium was aspirated, and cells were washed with PBS twice. Cells were covered with 39 μL of DMEM and 11 μL of the complex's solution were added to the cells and incubated for 4 h (final concentration of peptide=2.5, 5 and 10 μM; final concentration of EGFP-mRNA=25 ng/well). After the incubation, the medium was replaced by 100 μL of fresh DMEM supplemented with 10% FBS. The total EGFP fluorescence was quantified after 72 h in a well plate reader. Amphiphile transfection efficiency was compared and normalized to Lipofectamine® MessengerMax efficiency (value of 1 in Tables 1-5 and 7; double underlined numbers). All experiments were done in triplicate.
as §3
Tables 14-19 show the mean (triplicates) fluorescence intensity measured after the transfection of EGFP mRNA by different amphiphiles at different concentrations in a variety of cell lines. Background fluorescence values, accounted by untreated control cells, were subtracted for processing.

Compound | percentage of gene editing, GFP fluorescence intensity decrease (% of reduction) ([1]; Myristoleyl, 5 μM) [%] | percentage of gene editing, GFP fluorescence intensity decrease (% of reduction) ([1]; Oleyl, 10 μM) [%] | percentage of gene editing, GFP fluorescence intensity decrease (% of reduction) ([1]; Oleyl, 15 μM) [%] | percentage of gene editing, GFP fluorescence intensity decrease (% of reduction) ([1]; Palmitoleyl, 5 μM) [%] | percentage of gene editing, GFP fluorescence intensity decrease (% of reduction) ([1]; Palmitoleyl, 15 μM) [%] | percentage of gene editing, GFP fluorescence intensity decrease (% of reduction) ([1]; Petroselinyl, 5 μM) [%] | percentage of gene editing, GFP fluorescence intensity decrease (% of reduction) ([2]; Myristoleyl, 5 μM, HeLa cells) [%] | percentage of gene editing, GFP fluorescence intensity decrease (% of reduction) ([2]; Oleyl, 5 μM, HeLa cells) [%] | percentage of gene editing, GFP fluorescence intensity decrease (% of reduction) ([2]; Oleyl, 10 μM, HeLa cells) [%] | mean fluorescence intensity (EGFP mRNA) ([3]; Petroselinyl, 2.5 μM) | mean fluorescence intensity (EGFP mRNA) ([3]; Petroselinyl, 5 μM) | mean fluorescence intensity (EGFP mRNA) ([3]; Petroselinyl, 10 μM) | percentage of gene editing, GFP fluorescence intensity decrease (% of reduction) ([1]; Dodecanal, 5 μM) [%] | other results
CC(=O)N[C@@H](CCCNC(=N)N)C(=O)N[C@@H](CCCCNC(=O)CCCC(=O)NN)C(=O)N[C@@H](Cc1c[nH]cn1)C(=O)N[C@@H](CCCNC(=N)N)C(=O)N[C@@H](CCCCNC(=O)CCCC(=O)NN)C(=O)N[C@@H](CCCCNC(=O)CCCC(=O)NN)C(=O)N[C@@H](Cc1c[nH]cn1)C(N)=O [7.3(L-H), Ac-RK*HRK*K*H-NH2] (Ac-RK([Glutaryl-NHNH2])HRK([Glutaryl-NHNH2])K([Glutaryl-NHNH2])H-NH2) | −6 | 6 | 0 | 23 | −2 | 1 | 39 | 16 | 13 | 5653 | 19656 | 9118 |  | percentage of gene editing, GFP fluorescence intensity decrease (% of reduction) ([1]; Oleyl, 5 μM): −5%; percentage of gene editing, GFP fluorescence intensity decrease (% of reduction) ([1]; Palmitoleyl, 10 μM): −5%; percentage of gene editing, GFP fluorescence intensity decrease (% of reduction) ([2]; Dodecanal, 10 μM, HeLa cells): −8%; percentage of gene editing, GFP fluorescence intensity decrease (% of reduction) ([2]; Dodecanal, 15 μM, Hela cells): −21%; percentage of gene editing, GFP fluorescence intensity decrease (% of reduction) ([2]; Myristoleyl, 10 μM, HeLa cells): 22%; percentage of gene editing, GFP fluorescence intensity decrease (% of reduction) ([2]; Myristoleyl, 15 μM, Hela cells): 18%; percentage of gene editing, GFP fluorescence intensity decrease (% of reduction) ([2]; Oleyl, 15 μM, Hela cells): 22%; percentage of gene editing, GFP fluorescence intensity decrease (% of reduction) ([2]; Palmitoleyl, 5 μM, HeLa cells): 55%; percentage of gene editing, GFP fluorescence intensity decrease (% of reduction) ([2]; Palmitoleyl, 10 μM, HeLa cells): 28%; percentage of gene editing, GFP fluorescence intensity decrease (% of reduction) ([2]; Palmitoleyl, 15 μM, Hela cells): 17%; percentage of gene editing, GFP fluorescence intensity decrease (% of reduction) ([2]; Petroselinyl, 5 μM, HeLa cells): 46%; percentage of gene editing, GFP fluorescence intensity decrease (% of reduction) ([2]; Petroselinyl, 10 μM, Hela cells): 14%; mean fluorescence intensity (EGFP mRNA) ([3]; Myristoleyl, 2.5 μM): 76926; mean fluorescence intensity (EGFP mRNA) ([3]; Myristoleyl, 5 μM): 19128; mean fluorescence intensity (EGFP mRNA) ([3]; Palmitoleyl, 2.5 μM): 32455; mean fluorescence intensity (EGFP mRNA) ([3]; Palmitoleyl, 5 μM): 26406; mean fluorescence intensity (EGFP mRNA) ([3]; Palmitoleyl, 10 μM): 6504
Ac-RHLK*RHK*RRLK*RH-NH2 (Ac-RHLKRHKRRLKRH-NH2; not fully specified (residues 4, 7, 11); printed as Ac-RHLK*RHK*RRLK*RH-NH2; also: linker on K* not given here) [13(3His)] | −13 |  |  | −16 | −47 | 21 | 18 |  |  | 563 | 238 | 541 | −4 | percentage of gene editing, GFP fluorescence intensity decrease (% of reduction) ([1]; Petroselinyl, 10 μM): 4%; percentage of gene editing, GFP fluorescence intensity decrease (% of reduction) ([1]; Petroselinyl, 15 μM): −13%
Ac-RRLK*RLLRRLK*RL-NH2 (Ac-RRLK(NHNH2)RLLRRLK(NHNH2)RL-NH2; not fully specified; printed as Ac-RRLK*RLLRRLK*RL-NH2; also: K*4,K*11: native or modified lysine (ε-amide to a linker)) [Peptide 13.2] |  | −10 | −13 |  |  |  |  | 21 | 62 |  |  |  | −23 | percentage of gene editing, GFP fluorescence intensity decrease (% of reduction) ([1]; Dodecanal, 10 μM): −26%
